Results on 21 compounds are retold here after publication PMC10969092, “Characterization of Lysophospholipase D Activity in Mammalian Cell Membranes” (Cells, 2024).

The test system of assay [1] is lyso-PLD. Description: In vitro membrane lyso-PLD assay (B-lyso-PC substrate, B-LPA product). The format is biochemical, rat.
Assay [2] relates to lyso-PLD. The format is biochemical, human. The note with it: PC-3 membranes; for EC50: single-site competition fit, read-out: EC50 for inhibiting B-lyso-PC conversion to B-LPA; for Ability to compete with B-lyso-PC for utilization by lyso-PLD: up to 4.6 mM.
The target of assay [3] is T1, PLD (Rattus norvegicus, UniProt P70498).
T1 construct: PC12K membranes were incubated with either B-PC (for PLD assay) or commercial B-lyso-PC (for lyso-PLD assay); endogenous in cells; host or cells: PC12K and A7r5 cell membranes (100,000 x g pellet)
Kind of assay: In vitro fluorescent PLD assay in cell membranes (B-PC substrate with butanol, B-PBt product). The format is biochemical.

In assay [4] the test system is PLD. Description: PLD activity in intact cells. As to conditions: multiple cell types, varying experimental conditions. Format: cell-based.
For assay [5], the system named is PLD. On the set-up: method as in PMID 9655185. As to conditions: cited from earlier work.
Another assay has as its system PLC from Bacillus cereus. As to conditions: cited from earlier work.
In the next assay the test system is cabbage PLD. As to conditions: cited from earlier work.

In general, EC50 refers to the concentration needed to bring the measured effect to its halfway point.

Like-named read-outs stand apart in the source and are kept apart here.

T1 sequence (P70498 whole entry): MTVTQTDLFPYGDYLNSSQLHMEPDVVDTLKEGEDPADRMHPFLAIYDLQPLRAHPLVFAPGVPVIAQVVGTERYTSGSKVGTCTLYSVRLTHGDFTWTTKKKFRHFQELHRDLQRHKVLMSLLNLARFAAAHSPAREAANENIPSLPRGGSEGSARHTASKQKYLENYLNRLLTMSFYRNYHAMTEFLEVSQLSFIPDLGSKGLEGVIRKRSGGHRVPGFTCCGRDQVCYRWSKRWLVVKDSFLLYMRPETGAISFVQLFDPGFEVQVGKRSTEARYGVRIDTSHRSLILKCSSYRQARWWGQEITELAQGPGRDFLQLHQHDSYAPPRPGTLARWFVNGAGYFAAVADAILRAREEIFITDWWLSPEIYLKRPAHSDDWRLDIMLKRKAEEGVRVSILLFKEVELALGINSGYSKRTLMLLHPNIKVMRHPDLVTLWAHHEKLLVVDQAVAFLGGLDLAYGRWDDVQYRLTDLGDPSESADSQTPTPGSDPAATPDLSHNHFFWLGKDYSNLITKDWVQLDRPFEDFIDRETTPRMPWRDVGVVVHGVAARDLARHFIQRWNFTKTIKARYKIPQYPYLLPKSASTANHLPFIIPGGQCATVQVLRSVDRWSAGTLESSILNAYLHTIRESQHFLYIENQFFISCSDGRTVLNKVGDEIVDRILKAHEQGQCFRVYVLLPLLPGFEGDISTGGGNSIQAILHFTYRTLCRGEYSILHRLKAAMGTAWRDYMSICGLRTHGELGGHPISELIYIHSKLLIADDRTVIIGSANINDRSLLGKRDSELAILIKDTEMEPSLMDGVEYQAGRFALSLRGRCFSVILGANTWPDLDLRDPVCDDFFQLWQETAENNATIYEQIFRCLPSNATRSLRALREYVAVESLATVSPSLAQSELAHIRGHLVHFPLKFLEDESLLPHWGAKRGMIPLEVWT

In the case of `Nc1ncnc2c1ncn2[C@@H]1O[C@H](COP(=O)(O)OP(=O)(O)OP(=O)(O)O)[C@@H](O)[C@H]1O` [ATP], the “Stimulation of lyso-PLD activity” value in the assay with lyso-PLD [1] is listed as “did not stimulate lyso-PLD activity”.
For the compound `CCCCCCCCCCCCCCCCOC[C@@H](O)COP(=O)([O-])OCC[N+](C)(C)C` [C16-lyso-PAF], the EC50 with lyso-PLD [2] is roughly 400 µM.
Turning to `CCCCCCCCCCCCCCCC(=O)OC[C@@H](O)COP(=O)([O-])OCC[N+](C)(C)C` [C16-lyso-PC], the EC50 with lyso-PLD [2] is roughly 300 µM.
For `CCCCCCCCCCCCCCCCCCOC[C@@H](O)COP(=O)([O-])OCC[N+](C)(C)C` [C18-lyso-PAF], the EC50 in the assay with lyso-PLD [2] was roughly 400 µM.
On to `CCCCCCCCCCCCCCCCCC(=O)OC[C@@H](O)COP(=O)([O-])OCC[N+](C)(C)C` [C18-lyso-PC], for which the EC50 with lyso-PLD [2] was roughly 300 µM.
Same read-out and setting: the result for `CCCCCCCC/C=C\CCCCCCCC(=O)OC[C@@H](O)COP(=O)([O-])OCC[N+](C)(C)C` [C18:1-lyso-PC] reads roughly 300 µM.
For `O=S(=O)([O-])[O-].[Cu+2]` [copper sulfate], the “Inhibition of PLD in screening assays” value on PLD [3] is recorded as “did not inhibit PLD”.
Consider `C[S+](C)[O-]` [dimethylsulfoxide], for which, on PLD [3] (8%, cell line not stated), the “Effect on PLD activity” value was “completely inhibited”. The “Effect on lyso-PLD activity” value in the assay on lyso-PLD [1] (8%, cell line not stated) is “relatively insensitive”.
On to `[Cl-].[Cl-].[Mg+2]` [magnesium chloride], for which, at PLD [3], the “Inhibition of PLD in screening assays” value is recorded as “did not inhibit PLD”. In the assay with lyso-PLD [1], the “Stimulation of lyso-PLD activity” value is “did not stimulate lyso-PLD activity”.
In the case of `O=S(=O)([O-])[O-].[Mg+2]` [magnesium sulfate], at PLD [3], the “Inhibition of PLD in screening assays” value is on record as “did not inhibit PLD”.
As to `O=[N+]([O-])c1ccc(OP(=O)(O)O)cc1` [para-nitrophenol phosphate], on PLD [3], the “Inhibition of PLD in screening assays” value is “did not inhibit PLD”.
For the compound `O=C([O-])C(=O)[O-].[K+].[K+]` [potassium oxalate], the “Inhibition of PLD in screening assays” value on PLD [3] (concentrations of 1–10 mM) is recorded as “did not inhibit PLD”.
For `[Na+].[Na+].[O]=[Mo](=[O])([O-])[O-]` [sodium molybdate], the “Inhibition of PLD in screening assays” value on PLD [3] (concentrations of 1–10 mM) is “did not inhibit PLD”.
In the case of `O=C([O-])C(=O)[O-].[Na+].[Na+]` [sodium oxalate], the “Inhibition of PLD in screening assays” value at PLD [3] (concentrations of 1–10 mM) was “did not inhibit PLD”.
`O=S(=O)([O-])[O-].[Zn+2]` [zinc sulfate]: the “Inhibition of PLD in screening assays” value at PLD [3] was “did not inhibit PLD”.
As to `O=P(O)(O)OC(CO)CO` [β-glycerophosphate], the “Inhibition of PLD in screening assays” value on PLD [3] is on record as “did not inhibit PLD”.
With Lyso-phosphatidylserine, the “Ability to compete with B-lyso-PC for utilization by lyso-PLD” value in the assay on lyso-PLD [2] is on record as “poor competitor”.
On the same count and under the same terms, the result for lyso-phosphatidylethanol reads “least effective”.
With pervanadate, the “Inhibition of PLD in intact cells” value in the assay with PLD [4] is “failed to show that vanadate, pervanadate, or iodate inhibits PLD”. Also, the “Effect on PLD in intact endothelial cells” value with PLD [5] is on record as “activate PLD”.
On to sodium orthovanadate, for which the “B-PBt levels in kinetic study” value on PLD [3] (1 mM added after 10 min, PC12K membranes, B-PC substrate) was “B-PBt levels declined”. Also, the “Effect on PLD activity (production of B-PBt)” value at PLD [3] (1 mM, A7r5 membranes, B-PC substrate) was “profound inhibition of PLD activity”. In addition, in the assay with lyso-PLD [1], the “Effect on lyso-PLD activity (B-LPA from B-lyso-PC)” value is given as “did not inhibit” and the “Production of LPA in kinetic study” value is on record as “not significantly affected”. Further, the “Inhibition of PLD in intact cells” value in the assay on PLD [4] is “failed to show that vanadate, pervanadate, or iodate inhibits PLD”. Moreover, in the assay on PLA2, the “B-lyso-PBt production in kinetic study” value is on record as “continued but at a reduced rate”; the “Effect on PLA2 activity (generation of B-lyso-PC and B-lyso-PBt from B-PC)” value is listed as “did not inhibit”; the “lyso-PC accumulation in kinetic study” value was “did not affect lyso-PC accumulation”. Also, the “Inhibition of PLC from Bacillus cereus” value with PLC from Bacillus cereus is “inhibit a PLC from Bacillus cereus”. Also, the “Direct inhibition of cabbage PLD” value in the assay with cabbage PLD is reported as “directly inhibit cabbage PLD”.
With sodium tungstate, the “Inhibition of PLD in screening assays” value at PLD [3] (concentrations of 1–10 mM) is “did not inhibit PLD”.
